# Test results from US20180214391A1, “USE OF CURCUMIN AND PHARMACEUTICALLY ACCEPTABLE SALT THEREOF” (TARGETPHARMA LABORATORIES (JIANDSU) CO., LTD., priority 2015, published 2018).
# Key:
# Format in all cases: in vivo, C57BL/6 female mice
# T241-VEGF tumors = test: Antitumor animal model, subcutaneous T241-VEGF tumor: tumor volume and tumor weight; conditions: for final tumor volume compared with the control group / tumor weight compared with the control group: 0.1 ml/each, 14 days; for tumor weight compared with the control group: FIG. 1-B
# From the text: At present, conventional antitumor drugs are accompanied with toxic side effects while taking effect. In this experiment, we evaluated the antitumor effect of curcumin, and examined the toxicity of the drug by observing changes in animals' body weights after treatment. Given that the chemotherapy drug treatment and course of chemotherapy are closely related to the incident rates of antitumor associated syndrome and its severity, positive control in this experiment used the most advanced antitumor antibodies in the world as a control. […]-VEGF is a tumor model with rapid tumor growth and obvious symptom of tumor associated syndrome. We feed C57BL/6 female mice (SPF grade, 6-8 weeks old, manufactured by Shanghai Silaike Experimental Animal Co., Ltd.) for 2-3 days. The day before subcutaneous inoculation, body hair in back and neck was shaved with a shaving device for the preparation of subcutaneous inoculation of tumor cells. The tumor cells […]-VEGF were collected and washed twice with PBS. After resuspended with PBS and counted, the cells were diluted to 1×10^7 cells/ml with PBS and placed on ice ready for inoculation. Mice were anesthetized with 7% chloral hydrate, 0.1 ml/each, intraperitoneal injection. After the mice were completely anesthetized, the mice were subcutaneously inoculated with tumor cells […]-VEGF, 1×10^6/each, with 1 ml medical disposable syringes in the back and neck. Inoculated mice were randomly allocated (8 in each group), weighed, grouped and administered for treatment. In this experiment, curcumin (manufactured by Sigma, cat. no. […]) was dissolved to 1 mol/L with DMSO and diluted to 2.5 mM, 5 mM and 10 mM with 20% Tween-80 (mixed with PBS) before administration. Detailed information and administration plan is as follows: Control: 20% Tween-80, 0.1 ml/each; The low-dose of curcumin group (Curcumin-2.5 mM): 2.5 mM curcumin, 0.1 ml/each, continuous administration for 14 days; The medium-dose of curcumin group (Curcumin-5 mM): 5 mM curcumin, 0.1 ml/each, continuous administration for 14 days; The high-dose of curcumin group (Curcumin-10 mM): 10 mM Curcumin, 0.1 ml/each, continuous administration for 14 days; Positive control group (PC: anti-VEGF humanized monoclonal antibody, produced by Jiangsu […] Pharmaceutical Co., Ltd.): 2 mg/ml, 0.1 ml/each, twice a week, administration for 4 times. Mice were weighed up every other day. Measuring the tumor volume with vernier caliper every other day after tumor grew in the body. In order to further verify the antitumor effect of each dose of curcumin and its effect on liver and spleen, we handled and dissected the animals in each group the day after administration, got tumors, livers, spleens and kidneys, then weighed up all the tissues and stored them respectively.
# [1] = Body weight changes of T241-VEGF tumor-bearing mice after treatment (toxicity); conditions: low, medium and high dose of curcumin (2.5, 5, 10 mM, 0.1 ml/each, 14 days); consistent with normally fed animals
# From the text: At present, conventional antitumor drugs are accompanied with toxic side effects while taking effect. In this experiment, we evaluated the antitumor effect of curcumin, and examined the toxicity of the drug by observing changes in animals' body weights after treatment. Given that the chemotherapy drug treatment and course of chemotherapy are closely related to the incident rates of antitumor associated syndrome and its severity, positive control in this experiment used the most advanced antitumor antibodies in the world as a control. T241-VEGF is a tumor model with rapid tumor growth and obvious symptom of tumor associated syndrome.
# We feed C57BL/6 female mice (SPF grade, 6-8 weeks old, manufactured by Shanghai Silaike Experimental Animal Co., Ltd.) for 2-3 days. The day before subcutaneous inoculation, body hair in back and neck was shaved with a shaving device for the preparation of subcutaneous inoculation of tumor cells. The tumor cells T241-VEGF were collected and washed twice with PBS. After resuspended with PBS and counted, the cells were diluted to 1×10^7 cells/ml with PBS and placed on ice ready for inoculation. Mice were anesthetized with 7% chloral hydrate, 0.1 ml/each, intraperitoneal injection. […]
# [2] = test system: liver enlargement and splenomegaly caused by T241-VEGF tumor; test: Liver and spleen coefficients of T241-VEGF tumor-bearing mice; conditions: vs tumor control group, p<0.05
# Method: We feed C57BL/6 female mice (SPF grade, 6-8 weeks old, manufactured by Shanghai Silaike Experimental Animal Co., Ltd.) for 2-3 days. The day before subcutaneous inoculation, body hair in back and neck was shaved with a shaving device for the preparation of subcutaneous inoculation of tumor cells. The tumor cells T241-VEGF were collected and washed twice with PBS. After resuspended with PBS and counted, the cells were diluted to 1×10^7 cells/ml with PBS and placed on ice ready for inoculation. Mice were anesthetized with 7% chloral hydrate, 0.1 ml/each, intraperitoneal injection. After the mice were completely anesthetized, the mice were subcutaneously inoculated with tumor cells T241-VEGF, 1×10^6/each, with 1 ml medical disposable syringes in the back and neck. Inoculated mice were randomly allocated (8 in each group), weighed, grouped and administered for treatment. In this experiment, curcumin (manufactured by Sigma, cat. no. C1386-10G) was dissolved to 1 mol/L with DMSO and diluted to 2.5 mM, 5 mM and 10 mM with 20% Tween-80 (mixed with PBS) before administration. Detailed information and administration plan is as follows: Control: 20% Tween-80, 0.1 ml/each; The low-dose of curcumin group (Curcumin-2.5 mM): 2.5 mM curcumin, 0.1 ml/each, continuous administration for 14 days; The medium-dose of curcumin group (Curcumin-5 mM): 5 mM curcumin, 0.1 ml/each, continuous administration for 14 days; The high-dose of curcumin group (Curcumin-10 mM): 10 mM Curcumin, 0.1 ml/each, continuous administration for 14 days; Positive control group (PC: anti-VEGF humanized monoclonal antibody, produced by Jiangsu Simcere Pharmaceutical Co., Ltd.): 2 mg/ml, 0.1 ml/each, twice a week, administration for 4 times. Mice were weighed up every other day. Measuring the tumor volume with vernier caliper every other day after tumor grew in the body. […]
# [3] = test system: anemia symptoms induced by the T241-VEGF tumor animal model; test: Blood analysis of anemia symptoms (RBC, HGB, HCT, PLT) in T241-VEGF tumor-bearing mice
# Method: We feed C57BL/6 female mice (SPF grade, 6-8 weeks old, manufactured by Shanghai Silaike Experimental Animal Co., Ltd.) for 2-3 days. The day before subcutaneous inoculation, body hair in back and neck was shaved with a shaving device for the preparation of subcutaneous inoculation of tumor cells. The tumor cells T241-VEGF were collected and washed twice with PBS. After resuspended with PBS and counted, the cells were diluted to 1×10^7 cells/ml with PBS and placed on ice ready for inoculation. Mice were anesthetized with 7% chloral hydrate, 0.1 ml/each, intraperitoneal injection. After the mice were completely anesthetized, the mice were subcutaneously inoculated with tumor cells T241-VEGF, 1×10^6/each, with 1 ml medical disposable syringes in the back and neck. Inoculated mice were randomly allocated (8 in each group), weighed, grouped and administered for treatment. In this experiment, curcumin (manufactured by Sigma, cat. no. C1386-10G) was dissolved to 1 mol/L with DMSO and diluted to 2.5 mM, 5 mM and 10 mM with 20% Tween-80 (mixed with PBS) before administration. Detailed information and administration plan is as follows: Control: 20% Tween-80, 0.1 ml/each; The low-dose of curcumin group (Curcumin-2.5 mM): 2.5 mM curcumin, 0.1 ml/each, continuous administration for 14 days; The medium-dose of curcumin group (Curcumin-5 mM): 5 mM curcumin, 0.1 ml/each, continuous administration for 14 days; The high-dose of curcumin group (Curcumin-10 mM): 10 mM Curcumin, 0.1 ml/each, continuous administration for 14 days; Positive control group (PC: anti-VEGF humanized monoclonal antibody, produced by Jiangsu Simcere Pharmaceutical Co., Ltd.): 2 mg/ml, 0.1 ml/each, twice a week, administration for 4 times. Mice were weighed up every other day. Measuring the tumor volume with vernier caliper every other day after tumor grew in the body.
# Handled the animals in each group the day after administration, weighed up, then collected blood (stored in 1.5 ml of EP tubes with 20 ul of 0.5M EDTA) after enucleation of the eyeballs and performed blood analysis. Blood samples were taken to evaluate the effect of curcumin on tumor associated syndrome—red blood cell (RBC), hemoglobin (HGB), hematocrit (HCT) and platelet count (PLT) in mice.
# [4] = curcumin low, medium and high dose, positive control 2 mg/ml
smiles,measurement,setting,value
COc1cc(/C=C/C(=O)CC(=O)/C=C/c2ccc(O)c(OC)c2)ccc1O [curcumin],final tumor volume compared with the control group,T241-VEGF tumors; 2.5 mM curcumin,inhibited to a certain extent
same,tumor weight compared with the control group,T241-VEGF tumors; 5 mM curcumin,significantly different
same,final tumor volume compared with the control group,"T241-VEGF tumors; 5 mM curcumin, p<0.01 or p<0.001",significantly different
same,tumor weight compared with the control group,T241-VEGF tumors; 10 mM curcumin,significantly different
same,final tumor volume compared with the control group,"T241-VEGF tumors; 10 mM curcumin, p<0.01 or p<0.001",significantly different
same,growth of T241-VEGF tumors,"T241-VEGF tumors; low, medium and high dose of curcumin (2.5, 5, 10 mM, 0.1 ml/each, 14 days), FIG. 1-A",can inhibit the growth
same,body weight,[1],not reduced
same,liver enlargement (liver coefficient),[2]; 5 mM curcumin,significantly improve the liver enlargement
same,liver enlargement (liver coefficient),[2]; 10 mM curcumin,significantly improve the liver enlargement
same,spleen enlargement (spleen coefficient),[2]; 10 mM curcumin,significantly improve the spleen enlargement
same,platelet (PLT) compared with normal mice,[3]; curcumin at a dose of 10 mM,no statistical differences
same,anemia symptoms of tumor-bearing mice compared with control group,"[3]; curcumin low, medium and high dose (2.5, 5, 10 mM), positive control 2 mg/ml, FIG. 3",improved remarkably
same,hematocrit (HCT) compared with normal mice,[3]; [4],no statistical differences
same,hemoglobin (HGB) compared with normal mice,[3]; [4],no statistical differences
same,red blood cell (RBC) compared with normal mice,[3]; [4],no statistical differences
